Biological target: T1, human μ-opiate receptor (Homo sapiens, UniProt P35372)
T1 construct: purchased Nen company, Zaventem, Belgium RB-HOM; host or cells: CHO-K1 cells (membrane preparation)
Assay: Affinity for the human μ-opiate receptor ([3H]-naloxone displacement, SPA, CHO-K1 membrane preparation)
Settings: test substance 1 μmole/l, displacement of 1 nmole/l [3H]-naloxone, percentage inhibition of the specific binding; for inhibition at 1 µM: read-out: μ-opioid receptor, % inhibition [1 μM]
Description: Method for Determining the Affinity for the Human μ-Opiate Receptor
The receptor affinity for the human μ-opiate receptor is determined in a homogeneous batch in microtiter plates. For this purpose dilution series of the substances to be tested are incubated for 90 minutes at room temperature with a receptor membrane preparation (15-40 μg protein/250 μl incubation batch) of CHO-K1 cells, which express the human μ-opiate receptor (RB-HOM receptor membrane preparation from the Nen company, Zaventem, Belgium), in the presence of 1 nmole/l of the radioactive ligand [^3H]-naloxone (NET719, Nen company, Zaventem, Belgium) and 1 mg WGA-SPA beads (wheat germ agglutinin SPA beads from Amersham/Pharmacia, Freiburg, Germany) in a total volume of 250 μl. 50 mmole/l of Tris-HCl supplemented with 0.05% sodium azide and with 0.06% bovine serum albumin is used as incubation buffer. In order to determine the non-specific binding, 25 μmole/l of naloxone is additionally added. After the end of the 90 minutes' incubation time the microtiter plates are centrifuged for 20 minutes at 1000 g and the radioactivity is measured in a beta counter (Microbeta-Trilux, PerkinElmer Wallac, Freiburg, Germany). The percentage displacement of the radioactive ligand from its binding to the human μ-opiate receptor at a concentration of the test substances of 1 μmole/l is determined and is given as percentage inhibition of the specific binding.

T1 sequence (P35372 whole entry): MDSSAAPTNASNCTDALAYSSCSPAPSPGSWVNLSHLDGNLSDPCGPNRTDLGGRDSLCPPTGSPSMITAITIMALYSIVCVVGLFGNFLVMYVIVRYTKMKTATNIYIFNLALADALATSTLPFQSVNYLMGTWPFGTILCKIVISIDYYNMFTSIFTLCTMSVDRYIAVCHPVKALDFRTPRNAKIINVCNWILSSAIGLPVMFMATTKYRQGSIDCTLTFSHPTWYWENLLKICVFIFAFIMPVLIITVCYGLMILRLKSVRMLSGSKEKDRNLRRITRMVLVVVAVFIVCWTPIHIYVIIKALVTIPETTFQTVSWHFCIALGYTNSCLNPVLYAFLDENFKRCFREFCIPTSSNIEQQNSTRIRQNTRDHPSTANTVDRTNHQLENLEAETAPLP

CN(CCc1ccccc1)c1oc(C(C2CCC(C(c3ccc(Cl)cc3)N(C)C)CC2)N(C)c2ccccc2)nc1Cc1ccccc1 (centres unmarked) [compound 43, {4-benzyl-2-[{4-[(4-chlorophenyl)-dimethylaminomethyl]-cyclohexyl}-(methylphenylamine)-methyl]-oxazol-5-yl}-methylphenethylamine] was tested. Which “μ-opioid receptor, % inhibition [1 μM]” value did it give?
The value was 72%.

Which inhibition at 1 µM does the source give for CCN(CC)c1oc(C(C2CCC(C(c3ccc(Cl)cc3)N(C)C)CC2)N2CCN(Cc3ccccc3)CC2)nc1Cc1ccccc1 (centres unmarked) [compound 44, [4-benzyl-2-((4-benzylpiperazin-1-yl)-{4-[(4-chlorophenyl)-dimethylaminomethyl]-cyclohexyl}-methyl)-oxazol-5-yl]-diethylamine] here?
The inhibition at 1 µM was 67%.

For CC1CC(C)CN(c2oc(C(C3CCC(C(c4cccs4)N(C)C)CC3)N3CCCCC3)nc2Cc2ccccc2)C1 (centres unmarked) [compound 45, [(4-{[4-benzyl-5-(3,5-dimethylpiperidin-1-yl)-oxazol-2-yl]-piperidin-1-yl-methyl}-cyclohexyl)-thiophen-2-yl-methyl]-dimethylamine], which inhibition at 1 µM is on record?
The inhibition at 1 µM was 71%.

Which inhibition at 1 µM does the source give for CN(CCc1ccccc1)c1oc(C(C2CCC(C(c3cccs3)N(C)C)CC2)N2CCCCC2)nc1Cc1ccccc1 (centres unmarked) [compound 46, (4-benzyl-2-{[4-(dimethylaminothiophen-2-yl-methyl)-cyclohexyl]-piperidin-1-yl-methyl}-oxazol-5-yl)-methylphenethylamine] here?
Its inhibition at 1 µM is 80%.

For CCN(CC)c1oc(C(C2CCC(C(c3cccs3)N(C)C)CC2)N2CCCCC2)nc1Cc1ccccc1 (centres unmarked) [compound 47, (4-benzyl-2-{[4-(dimethylamino-thiophen-2-yl-methyl)-cyclohexyl]-piperidin-1-yl-methyl}-oxazol-5-yl)-diethylamine], which inhibition at 1 µM is on record?
The inhibition at 1 µM was 73%.

Which inhibition at 1 µM does the source give for CN(C)C(c1cccs1)C1CCC(C(c2nc(Cc3ccccc3)c(N3CCSCC3)o2)N2CCCCC2)CC1 (centres unmarked) [compound 48, ({4-[(4-benzyl-5-thiomorpholin-4-yl-oxazol-2-yl)-piperidin-1-yl-methyl]-cyclohexyl}-thiophen-2-yl-methyl)-dimethylamine] here?
Its inhibition at 1 µM is 60%.

How did the inhibition at 1 µM turn out when CCN(CC)C(c1nc(Cc2ccccc2)c(N(C)CCc2ccccc2)o1)C1CCC(C(c2cccs2)N(C)C)CC1 (centres unmarked) [compound 49, (4-benzyl-2-{diethylamino-[4-(dimethylamino-thiophen-2-yl-methyl)-cyclohexyl]-methyl}-oxazol-5-yl)-methylphenethylamine] was run?
Its inhibition at 1 µM is 90%.

For CCN(CC)c1oc(C(C2CCC(C(c3cccs3)N(C)C)CC2)N(CC)CC)nc1Cc1ccccc1 (centres unmarked) [compound 50, (4-benzyl-2-{diethylamino-[4-(dimethylaminothiophen-2-yl-methyl)-cyclohexyl]-methyl}-oxazol-5-yl)-diethylamine], which inhibition at 1 µM is on record?
Its inhibition at 1 µM is 83%.

For CCN(CC)C(c1nc(Cc2ccccc2)c(N2CCCC(C)C2)o1)C1CCC(C(c2cccs2)N(C)C)CC1 (centres unmarked) [compound 51, {[4-benzyl-5-(3-methylpiperidin-1-yl)-oxazol-2-yl]-[4-(dimethylamino-thiophen-2-yl-methyl)-cyclohexyl]-methyl}-diethylamine], which inhibition at 1 µM is on record?
The inhibition at 1 µM was 100%.

Which inhibition at 1 µM does the source give for CN(C)C(c1cccs1)C1CCC(C(c2nc(Cc3ccccc3)c(N3CCSCC3)o2)N(C)c2ccccc2)CC1 (centres unmarked) [compound 52, {(4-benzyl-5-thiomorpholin-4-yl-oxazol-2-yl)-[4-(dimethylaminothiophen-2-yl-methyl)-cyclohexyl]-methyl}-methylphenylamine] here?
Its inhibition at 1 µM is 92%.

Which inhibition at 1 µM does the source give for CC1CC(C)CN(c2oc(C(C3CCC(C(c4cccs4)N(C)C)CC3)N3CCN(Cc4ccccc4)CC3)nc2Cc2ccccc2)C1 (centres unmarked) [compound 53, ({4-[[4-benzyl-5-(3,5-dimethylpiperidin-1-yl)-oxazol-2-yl]-(4-benzyl-piperazin-1-yl)-methyl]-cyclohexyl}-thiophen-2-yl-methyl)-dimethylamine] here?
The inhibition at 1 µM was 86%.
